# Measured values as given in US8343951B2, “Volatile sulfide production inhibitor and method for inhibiting the production of volatile sulfide using the inhibitor” (Kabushiki Kaisha Hayashibara Seibutsu Kagaku Kenkyujo, priority 2006, dated 2013).
# Columns and labels:
# [1] = Hydrogen sulfide production from heated mackerel meat homogenate (headspace detecting tube); settings: for Produced Volatile sulfide: hydrogen sulfide in headspace; for Inhibiting rate of volatile sulfide production: hydrogen sulfide, relative to control
# Procedure: AA-2G (reagent grade, commercialized by Hayashibara Biochemical Laboratories, Inc.) was dissolved in distilled water to give a solution of a concentration of 10%. A certain amount of the solution and 5 ml of 500 mM phosphate buffer (pH 7.0) were put into measuring flask and filled up to 50 ml to give the test solutions containing AA-2G at the twofold concentration described in Table 1. Also the test solutions containing ascorbic acid were prepared in the same way except for using ascorbic acid (guaranteed regent) in place of AA-2G. Five ml of 500 mM phosphate buffer (pH 7.0) was filled up to 50 ml with distilled water to give control solution. Edible part of commercial mackerel fillet without bone and skin was chopped with trio blender and homogeneously stirred to make minced mackerel. Forty-five grams of the minced mackerel was put into a beaker and added with 45 g of the test solution or control solution to give the samples at the concentration of AA-2G or ascorbic acid described in Table 1. The samples were treated with homogenizer (produced by IKA Works Inc.) at ice-chilled temperature to give the homogenates as the test samples. PH of the homogenates is from 6.21 to 6.38. Ten grams of the above samples were put into 20 ml-vials and sealed with butyl rubber cap and aluminum seal. They were heated in boiled water bath for 15 minutes and cooled in running cool water. After cooled, they were heated on heating block (80° C.) for 10 minutes and the solidified samples were broken with vortex mixer. The amounts of hydrogen sulfide in the headspace gas were measured by hydrogen sulfide detecting tube ([…] No. 4LT, produced by GL Sciences Inc.). Also the inhibiting rate (%) of hydrogen sulfide production were shown in Table 1, which were obtained by subtracting the percentage amounts of hydrogen sulfide produced from 1 g of mackerel meats added with test solutions relative to the amount of hydrogen sulfide produced from 1 g of mackerel meat added with control solution from 100 to obtain.
# [2] = Dimethyl-sulfide and dimethyl-disulfide production from heated milk (headspace gas chromatography); settings: for Produced Dimethyl-disulfide / Produced Dimethyl-sulfide: milk heated 130° C. one minute; for production of volatile sulfides (dimethyl-sulfide and dimethyl-disulfide) from the test solutions / Produced Volatile sulfide: milk; for Inhibiting rate of volatile sulfide production: relative to control milk; for Produced Volatile sulfide: sum of dimethyl-sulfide and dimethyl-disulfide
# Procedure: AA-2G (reagent grade, commercialized by Hayashibara Biochemical Laboratories, Inc.) was added in commercial milk to give the concentrations described in Table 2 to make the test solutions. Test solutions containing ascorbic acid were prepared in the same way except for using ascorbic acid (guaranteed regent) in place of AA-2G. The commercial milk was used plain as control. Sensory test of the solutions was performed by 11 panelists to evaluate the taste of each test solution added with AA-2G or ascorbic acid as being different (D) from control or as being the same (S) as control. As a result, eight or more of the 11 panelists gave a same evaluation to each test solution.
# One ml of the above samples were put into 20 ml-vials and sealed with butyl rubber cap and aluminum seal. After heated at 130° C. for one minute, the amounts of dimethyl-sulfide and dimethyl-disulfide in the headspace were measured by gas chromatography in conventional way. The sums of them were shown as the amounts of volatile sulfide in Table 2. Also the inhibiting rates (%) of volatile sulfide production were shown in Table 2, which were obtained by subtracting the percentage amounts of volatile sulfide produced from ml of the test solutions relative to the amount of volatile sulfide produced from 1 ml of control (milk) from 100 to obtain.
structure (smiles),measurement,setting,value
"O=C1O[C@H]([C@@H](O)CO)C(O)=C1O[C@H]1O[C@H](CO)[C@@H](O)[C@H](O)[C@H]1O [AA-2G, α-D-glucopyronosyl-(1→2)-L-ascorbic acid]",hydrogen sulfide production from homogenate of mackerel meat,[1]; AA-2G concentration of 0.1%,enhanced
same,hydrogen sulfide production from homogenate of mackerel meat,"[1]; concentration in a range from 0.0005 to 0.5%, versus control",inhibited
same,Produced Volatile sulfide,[1]; additive 0.0001% in sample,44.5 μg/g-mackerel
same,Produced Volatile sulfide,[1]; additive 0.0005% in sample,30.7 μg/g-mackerel
same,Produced Volatile sulfide,[1]; additive 0.001% in sample,17.4 μg/g-mackerel
same,Produced Volatile sulfide,[1]; additive 0.005% in sample,11.5 μg/g-mackerel
same,Produced Volatile sulfide,[1]; additive 0.01% in sample,13.2 μg/g-mackerel
same,Produced Volatile sulfide,[1]; additive 0.025% in sample,16.1 μg/g-mackerel
same,Produced Volatile sulfide,[1]; additive 0.05% in sample,19.9 μg/g-mackerel
same,Produced Volatile sulfide,[1]; additive 0.1% in sample,25.9 μg/g-mackerel
same,Produced Volatile sulfide,[1]; additive 0.5% in sample,38.2 μg/g-mackerel
same,Produced Volatile sulfide,[1]; additive 1.0% in sample,48.5 μg/g-mackerel
same,Inhibiting rate of volatile sulfide production,[1]; additive 0.0001% in sample,−3.0%
same,Inhibiting rate of volatile sulfide production,[1]; additive 0.0005% in sample,28.9%
same,Inhibiting rate of volatile sulfide production,[1]; additive 0.001% in sample,59.7%
same,Inhibiting rate of volatile sulfide production,[1]; additive 0.005% in sample,73.4%
same,Inhibiting rate of volatile sulfide production,[1]; additive 0.01% in sample,69.4%
same,Inhibiting rate of volatile sulfide production,[1]; additive 0.025% in sample,62.7%
same,Inhibiting rate of volatile sulfide production,[1]; additive 0.05% in sample,53.9%
same,Inhibiting rate of volatile sulfide production,[1]; additive 0.1% in sample,40.0%
same,Inhibiting rate of volatile sulfide production,[1]; additive 0.5% in sample,11.6%
same,Inhibiting rate of volatile sulfide production,[1]; additive 1.0% in sample,−12.3%
same,Produced Dimethyl-disulfide,[2]; additive 0.0001% in sample,0.54 μg/ml-milk
same,Produced Dimethyl-sulfide,[2]; additive 0.0001% in sample,1.30 μg/ml-milk
same,Produced Dimethyl-disulfide,[2]; additive 0.0005% in sample,0.43 μg/ml-milk
same,Produced Dimethyl-sulfide,[2]; additive 0.0005% in sample,1.12 μg/ml-milk
same,Produced Dimethyl-disulfide,[2]; additive 0.001% in sample,0.37 μg/ml-milk
same,Produced Dimethyl-sulfide,[2]; additive 0.001% in sample,0.75 μg/ml-milk
same,Produced Dimethyl-disulfide,[2]; additive 0.005% in sample,0.14 μg/ml-milk
same,Produced Dimethyl-sulfide,[2]; additive 0.005% in sample,0.23 μg/ml-milk
same,Produced Dimethyl-disulfide,[2]; additive 0.01% in sample,0.14 μg/ml-milk
same,Produced Dimethyl-sulfide,[2]; additive 0.01% in sample,0.11 μg/ml-milk
same,Produced Dimethyl-disulfide,[2]; additive 0.05% in sample,0.07 μg/ml-milk
same,Produced Dimethyl-sulfide,[2]; additive 0.05% in sample,0.07 μg/ml-milk
same,Produced Dimethyl-disulfide,[2]; additive 0.1% in sample,0.07 μg/ml-milk
same,Produced Dimethyl-sulfide,[2]; additive 0.1% in sample,0.06 μg/ml-milk
same,Produced Dimethyl-disulfide,[2]; additive 0.5% in sample,0.08 μg/ml-milk
same,Produced Dimethyl-sulfide,[2]; additive 0.5% in sample,0.10 μg/ml-milk
same,Produced Dimethyl-disulfide,[2]; additive 2.5% in sample,0.19 μg/ml-milk
same,Produced Dimethyl-sulfide,[2]; additive 2.5% in sample,0.28 μg/ml-milk
same,production of volatile sulfides (dimethyl-sulfide and dimethyl-disulfide) from the test solutions,[2]; concentration from 0.005 to 0.5%,strongly inhibited
same,production of volatile sulfides (dimethyl-sulfide and dimethyl-disulfide) from the test solutions,"[2]; concentration of 0.0005% or more, compared to control",inhibited
same,Inhibiting rate of volatile sulfide production,[2]; additive 0.0001% in sample,2.6%
same,Inhibiting rate of volatile sulfide production,[2]; additive 0.0005% in sample,18.0%
same,Inhibiting rate of volatile sulfide production,[2]; additive 0.001% in sample,40.7%
same,Inhibiting rate of volatile sulfide production,[2]; additive 0.005% in sample,80.4%
same,Inhibiting rate of volatile sulfide production,[2]; additive 0.01% in sample,86.8%
same,Inhibiting rate of volatile sulfide production,[2]; additive 0.05% in sample,92.6%
same,Inhibiting rate of volatile sulfide production,[2]; additive 0.1% in sample,93.1%
same,Inhibiting rate of volatile sulfide production,[2]; additive 0.5% in sample,90.5%
same,Inhibiting rate of volatile sulfide production,[2]; additive 2.5% in sample,75.1%
same,Produced Volatile sulfide,[2]; additive 0.0001% in sample,1.94 µg/mL
same,Produced Volatile sulfide,[2]; additive 0.0005% in sample,1.55 µg/mL
same,Produced Volatile sulfide,[2]; additive 0.001% in sample,1.12 µg/mL
same,Produced Volatile sulfide,[2]; additive 0.005% in sample,0.37 µg/mL
same,Produced Volatile sulfide,[2]; additive 0.01% in sample,0.25 µg/mL
same,Produced Volatile sulfide,[2]; additive 0.05% in sample,0.14 µg/mL
same,Produced Volatile sulfide,[2]; additive 0.1% in sample,0.13 µg/mL
same,Produced Volatile sulfide,[2]; additive 0.5% in sample,0.18 µg/mL
same,Produced Volatile sulfide,[2]; additive 2.5% in sample,0.47 µg/mL
